Results taken from patent publication US5571524A, “Agent for curing ischemic myocardial disease” (Unitika Ltd., priority 1994, dated 1996).

What was measured:
Mongrel dogs [1] = assay: Amelioration of myocardial ischemia: coronary blood flow, fractional shortening and perfusion pressure during factitious 1/3 blood flow; type: in vivo; details: for Myocardial fractional shortening / Coronary blood flow / Coronary perfusion pressure: ischemia (1/3 blood flow), N = 2
Procedure: (§1) Mongrel dogs weighing 18-22 kg were anesthetized with pentobarbital sodium (30 mg/kg). The trachea was intubated, and the dog was ventilated with room air with oxygen. The chest was opened through the left fifth intercostal space, and the heart was suspended in a pericardial cradle. The left anterior descending coronary artery was cannulated and perfused with blood via the carotid artery through an extracorporeal bypass tube after heparinization (500 units/kg). Coronary blood flow (CBF) was measured with an electromagnetic flow probe attached to the bypass tube, and coronary perfusion pressure (CPP) was monitored at the tip of the coronary arterial cannula. A small, short collecting tube was cannulated into a small coronary vein near the center of the perfused area to sample coronary venous blood. The drained venous blood was collected in a reservoir placed at the level of the left atrium. A high fidelity of left ventricular pressure and its first derivative were measured by a micromanometer (model P-5, Konigsberg Instruments, Inc., Pasadena, Calif.) placed in the left ventricular cavity through the apex. A pair of ultrasonic crystals was placed in the center of the perfused area about 1 cm apart to measure myocardial segment length with an ultrasonic dimension gauge (5 MHz, Schuessler, Cardiff by the Sea, Calif.). End-diastolic length (EDL) was determined at the R wave of the electrocardiogram, and end-systolic length (ESL) was determined at the minimal dP/dt. Fractional shortening was calculated by (EDL-ESL)/EDL as an index of myocardial contractility of the perfused area.
(§2) After stabilization, CPP was decreased with partial occlusion of the bypass tube to the left anterior descending coronary artery such that CBF decreased to one third of the control flow. The low CPP was maintained during this test.
(§3) Blood sampling from coronary veins and coronary arteries was conducted. Then the intracoronary administration of Ap4A was stopped. The lowered coronary perfusion pressure was further maintained for 10 minutes.
(§4) The above test was repeated by replacing Ap4A with adenosine with the dosage thereof being changed to 4, 8 and 16 μg/kg/min.

[2] = tested on: rabbit mesenteric arteries; details: R. Busse et al. 1988; cited from earlier work
[3] = Japanese Laid-Open Patent Application 5-286861; cited from earlier work
Mongrel dogs [4] = assay: Coronary blood flow increase effect, nonischemic condition; type: in vivo; details: for Coronary blood flow: N = 1 - 2; for coronary blood flow increase: nonischemic
Procedure: as §1
After stabilization, a physiological saline solution […], with the dosage thereof increased to 0.5, 1, 2, 4 and 8 μg/kg/min, and the changes in coronary blood flow were measured in order to assess the coronary blood flow increase effect of Ap4A.
8-sulfophenyltheophylline (hereinafter referred to as 8-SPT) serving as adenosine P1 receptor antagonist with a dose of 25 μg/kg/min was tested.
The above test was also repeated by replacing 8-SPT with N^G -nitro-L-arginine methyl ester (hereinafter referred to as L-NAME) serving as an endothelial-cell-induced nitric oxide (NO) synthesis inhibitor with a dose of 3 μg/kg/min(ic).
The above test was then repeated using 8-SPT and L-NAME in combination.

[5] = Japanese Laid-Open Patent Application 3-167126; cited from earlier work
coronary vessels = details: at normal time; cited from earlier work
Mongrel dogs [6] = assay: Lactate extraction ratio and pH of venous blood during ischemia; type: in vivo; details: ischemia (1/3 blood flow), N = 2
Procedure: as §1
Namely, the lactate extraction ratio was obtained by coronary arteriovenous difference in lactate concentration multiplied by 100 and divided by arterial lactate concentration.
as §2, §3, §4
As mentioned previously, in the above-mentioned experimental systems, lactate extraction ratio and pH of venous blood were measured at the time of the intracoronary administration of Ap4A and also at the time of the intracoronary administration of adenosine.

Mongrel dogs [7] = assay: Myocardial oxygen consumption (MVO2), nonischemic condition; type: in vivo; details: for Myocardial oxygen consumption: control 9.1
Procedure: as §1
After stabilization, a physiological saline solution prepared by dissolving Ap4A.4Na in physiological saline was continuously infused into the coronary artery, with the dosage thereof increased to 0.5, 1, 2, 4 and 8 μg/kg/min, and the changes in coronary blood flow were measured in order to assess the coronary blood flow increase effect of Ap4A.
Changes in myocardial oxygen consumption (MVO2) (ml/100 g/min) caused by the administration of Ap4A were measured as shown in TABLE 2.

[8] = cited from earlier work
human platelet = details: Leuthje and Ogiluie 1984; cited from earlier work

## Nc1ncnc2c1ncn2[C@@H]1O[C@H](COP(=O)(O)OP(=O)(O)OP(=O)(O)OP(=O)(O)OC[C@H]2O[C@@H](n3cnc4c(N)ncnc43)[C@H](O)[C@@H]2O)[C@@H](O)[C@H]1O [Ap4A, Diadenosine 5',5"'-p^1, p^4 -tetraphosphate]
Mongrel dogs [1]; Ap4A 4 μg/kg/min intracoronary 10 minutes, control 24.7, 1/3 control 4.9
  Myocardial fractional shortening: 11.5%
Mongrel dogs [1]; Ap4A 4 μg/kg/min intracoronary 10 minutes, control 90.5, 1/3 control 30.4
  Coronary blood flow: 48.2 ml/100 g/min
Mongrel dogs [1]; Ap4A 4 μg/kg/min intracoronary 10 minutes, control 104, 1/3 control 54
  Coronary perfusion pressure: 54 mmHg
Mongrel dogs [1]; Ap4A administration stopped, 1/3 control 4.9
  Myocardial fractional shortening: 4.8%
Mongrel dogs [1]; Ap4A administration stopped, 1/3 control 30.4
  Coronary blood flow: 31.9 ml/100 g/min
Mongrel dogs [1]; Ap4A administration stopped, 1/3 control 54
  Coronary perfusion pressure: 54 mmHg
Mongrel dogs [1]; ischemia, Ap4A 4 μg/kg/min
  prevention of decrease in myocardial fractional shortening: significantly preventing a decrease in myocardial fractional shortening
Mongrel dogs [1]; mongrel dogs in a state of excessive ischemia
  amelioration effect on myocardial ischemia: noticeable amelioration effect on myocardial ischemia
[2]
  vasodilating effect on rabbit mesenteric arteries: vasodilating effect on rabbit mesenteric arteries
[3]
  deliberated hypotensive effect: deliberated hypotensive effect
Mongrel dogs [4]; 8-SPT 25 μg/kg/min
  coronary blood flow increase effect of Ap4A in presence of 8-SPT: partially inhibited
Mongrel dogs [4]; 8-SPT and L-NAME in combination
  coronary blood flow increase effect of Ap4A in presence of 8-SPT and L-NAME: not completely inhibited
Mongrel dogs [4]; L-NAME 3 μg/kg/min (ic)
  coronary blood flow increase effect of Ap4A in presence of L-NAME: only slightly inhibited
Mongrel dogs [4]; Untreated (no inhibitor), Ap4A 0.5 μg/kg/min intracoronary, control 93.7
  Coronary blood flow: 104.1 ml/100 g/min
Mongrel dogs [4]; Untreated (no inhibitor), Ap4A 1 μg/kg/min intracoronary, control 93.7
  Coronary blood flow: 122.2 ml/100 g/min
Mongrel dogs [4]; Untreated (no inhibitor), Ap4A 2 μg/kg/min intracoronary, control 93.7
  Coronary blood flow: 137.6 ml/100 g/min
Mongrel dogs [4]; Untreated (no inhibitor), Ap4A 4 μg/kg/min intracoronary, control 93.7
  Coronary blood flow: 158.9 ml/100 g/min
Mongrel dogs [4]; Untreated (no inhibitor), Ap4A 8 μg/kg/min intracoronary, control 93.7
  Coronary blood flow: 202.2 ml/100 g/min
Mongrel dogs [4]; intracoronary 0.5 to 8 μg/kg/min
  coronary blood flow increase: significantly increasing the coronary blood flow dose-dependently
Mongrel dogs [4]; intravenous administration
  coronary blood flow increase: This effect was also observed
Mongrel dogs [4]; with 8-SPT 25 μg/kg/min, Ap4A 0.5 μg/kg/min, control 97.0
  Coronary blood flow: 98.6 ml/100 g/min
Mongrel dogs [4]; with 8-SPT 25 μg/kg/min, Ap4A 1 μg/kg/min, control 97.0
  Coronary blood flow: 96.8 ml/100 g/min
Mongrel dogs [4]; with 8-SPT 25 μg/kg/min, Ap4A 2 μg/kg/min, control 97.0
  Coronary blood flow: 106.1 ml/100 g/min
Mongrel dogs [4]; with 8-SPT 25 μg/kg/min, Ap4A 4 μg/kg/min, control 97.0
  Coronary blood flow: 117.0 ml/100 g/min
Mongrel dogs [4]; with 8-SPT 25 μg/kg/min, Ap4A 8 μg/kg/min, control 97.0
  Coronary blood flow: 124.5 ml/100 g/min
Mongrel dogs [4]; with 8-SPT + L-NAME, Ap4A 0.5 μg/kg/min, control 97.1
  Coronary blood flow: 97.1 ml/100 g/min
Mongrel dogs [4]; with 8-SPT + L-NAME, Ap4A 1 μg/kg/min, control 97.1
  Coronary blood flow: 108.6 ml/100 g/min
Mongrel dogs [4]; with 8-SPT + L-NAME, Ap4A 2 μg/kg/min, control 97.1
  Coronary blood flow: 102.9 ml/100 g/min
Mongrel dogs [4]; with 8-SPT + L-NAME, Ap4A 4 μg/kg/min, control 97.1
  Coronary blood flow: 114.3 ml/100 g/min
Mongrel dogs [4]; with 8-SPT + L-NAME, Ap4A 8 μg/kg/min, control 97.1
  Coronary blood flow: 120.0 ml/100 g/min
Mongrel dogs [4]; with L-NAME 3 μg/kg/min (ic), Ap4A 0.5 μg/kg/min, control 90.3
  Coronary blood flow: 100.0 ml/100 g/min
Mongrel dogs [4]; with L-NAME 3 μg/kg/min (ic), Ap4A 1 μg/kg/min, control 90.3
  Coronary blood flow: 119.4 ml/100 g/min
Mongrel dogs [4]; with L-NAME 3 μg/kg/min (ic), Ap4A 2 μg/kg/min, control 90.3
  Coronary blood flow: 122.6 ml/100 g/min
Mongrel dogs [4]; with L-NAME 3 μg/kg/min (ic), Ap4A 4 μg/kg/min, control 90.3
  Coronary blood flow: 151.6 ml/100 g/min
Mongrel dogs [4]; with L-NAME 3 μg/kg/min (ic), Ap4A 8 μg/kg/min, control 90.3
  Coronary blood flow: 219.4 ml/100 g/min
[5]
  anti-arrhythmia effect: anti-arrhythmia effect
Coronary vessels
  vasodilating effect on coronary vessels: vasodilating effect on coronary vessels at normal time
Mongrel dogs [6]; Ap4A 4 μg/kg/min intracoronary, control 7.39, 1/3 control 7.23
  pH of venous blood: 7.29
Mongrel dogs [6]; Ap4A 4 μg/kg/min intracoronary, control 28.3, 1/3 control -39.8
  Lactate extraction ratio: -15.8%
Mongrel dogs [6]; Ap4A administration stopped, 1/3 control 7.23
  pH of venous blood: 7.19
Mongrel dogs [6]; Ap4A administration stopped, 1/3 control -39.8
  Lactate extraction ratio: -48.6%
Mongrel dogs [7]; Ap4A 0.5 μg/kg/min
  Myocardial oxygen consumption: 9.9 ml/100 g/min
Mongrel dogs [7]; Ap4A 1 μg/kg/min
  Myocardial oxygen consumption: 9.0 ml/100 g/min
Mongrel dogs [7]; Ap4A 2 μg/kg/min
  Myocardial oxygen consumption: 8.7 ml/100 g/min
Mongrel dogs [7]; Ap4A 4 μg/kg/min
  Myocardial oxygen consumption: 8.7 ml/100 g/min
Mongrel dogs [7]; Ap4A 8 μg/kg/min
  Myocardial oxygen consumption: 9.5 ml/100 g/min
Mongrel dogs [7]; Ap4A 0.5 to 8 μg/kg/min
  myocardial oxygen consumption (MVO2) change: neither largely increased nor decreased
[8]
  degradation in vivo: degraded in vivo to ATP and AMP, which are eventually degraded to adenosine
Human platelet
  ADP-induced human platelet aggregation inhibitory effect: ADP-induced human platelet aggregation inhibitory effect
